Drawing on PMC13470012, “Long-term inhibition of lysosomal glucocerebrosidase activity promotes GPX4 stability and inhibits ferroptosis in dopaminergic neurons” (Cell Death & Disease, 2026), this text covers IC50 for one compound.

pIC50: −log10 of the molar value.

This experiment addresses T1, lysosomal glucocerebrosidase (Homo sapiens, UniProt P04062).
T1 construct: gene GBA1
T1 sequence (P04062 40-536): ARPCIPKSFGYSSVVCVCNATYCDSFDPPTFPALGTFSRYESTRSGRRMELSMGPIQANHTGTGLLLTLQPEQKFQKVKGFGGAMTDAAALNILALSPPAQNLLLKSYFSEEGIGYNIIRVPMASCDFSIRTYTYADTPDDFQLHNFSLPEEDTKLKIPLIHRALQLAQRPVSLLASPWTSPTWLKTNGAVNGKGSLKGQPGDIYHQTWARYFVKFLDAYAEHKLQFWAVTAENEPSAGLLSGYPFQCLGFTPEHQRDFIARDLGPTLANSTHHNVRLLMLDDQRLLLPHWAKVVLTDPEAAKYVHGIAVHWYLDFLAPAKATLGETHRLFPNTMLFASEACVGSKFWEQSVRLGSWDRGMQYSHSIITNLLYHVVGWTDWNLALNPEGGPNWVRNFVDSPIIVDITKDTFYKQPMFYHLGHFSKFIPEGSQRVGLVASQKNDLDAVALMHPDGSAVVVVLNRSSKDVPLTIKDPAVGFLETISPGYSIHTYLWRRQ
Kind of experiment: fluorogenic (4-methylumbelliferone) glucocerebrosidase activity assay in lysates of CBE-treated human LUHMES cells, […] h dose range. The class given is cell-based.

Take `O[C@H]1[C@H](O)[C@@H](O)[C@@H]2O[C@@H]2[C@@H]1O` [conduritol-beta-epoxide]: the pIC50 is roughly 5.05.
